Laboratory results as given in patent US9212140B2, “(5s,8s)-3-(4′-chlor-3′-fluor-4-methlybiphenyl-3-yl)-4-hydroxy-8-methoxy-1-azaspiro[4.5] dec-3-en-2-one (compound A) for treatment” (Bayer Intellectual Property GmbH, priority 2011, dated 2015).
Blank lines part the entries; values can stand above or below the molecule they belong to.

How the values were obtained:
human MCF-7 cells = experiment: MCF-7 breast cancer xenograft model; format: in vivo, female nude mice (NMRI nu/nu); details: for T/C (based on tumour area) / T/C (based on tumour weight): 30 days, once per day
Method: Xenograft models in immunosuppressed mice were used to determine the antitumour activity in living organisms.
Various xenograft models in which the test substances were administered in their MTD and in lower doses were then used to determine the antitumour activity. In addition to various other models, use was made primarily of the breast cancer model with hormone-dependent human MCF-7 cells in female nude mice (NMRI-nude (nu/nu) mice, Taconic M&B A/S). To this end, on the day prior to the implantation of the tumour cells, a pellet for releasing oestrogen (17β-oestradiol 0.36 mg, release over 60 days) was administered subcutaneously to the mice. The next day, 2 million tumour cells (suspended in medium+Matrigel) 1:1, final 0.1 ml) were then injected subcutaneously into the side of each animal. When the tumours extended to an area of 20-25 mm^2, the mice were randomized into therapy groups and therapy was initiated. The therapy was then continued until an average tumour size of 120 mm^2 had been reached in the control group, which had only been given the vehicle of the test substance, or in one of the treatment groups, with tumour area and body weight being measured 2-3 times per week. At this point in time, the experiment was terminated in all groups and the excised tumours were weighed.
The T/C value was calculated as primary success parameter either using the effect on the tumour weight or using the effect on the tumour area: mean tumour weight/area in the treatment group divided by mean of the tumour weight/area in the vehicle group.
Comparative Example C.1 was subsequently administered to female nude mice (NMRI nu/nu) in the MCF-7 breast cancer xenograft model: • Dose: 7.5 mg/kg • Mode of administration: oral • Vehicle: PEG400/ethanol/Solutol HS 15(70/5/25, v/v/v) • Administration volume: 10 ml/kg • Scheme: 27 days, 2 times per day (2 qd) • Mice: 10
Compound A was subsequently administered to female nude mice (NMRI nu/nu) in the MCF-7 breast cancer xenograft model: • Dose: see Tab. 5 • Mode of administration: oral • Vehicle: PEG400/ethanol/Solutol HS 15(70/5/25, v/v/v) • Administration volume: 10 ml/kg • Scheme: 30 days, once per day (qd) • Mice per dose group: 10-13
For the statistical evaluation of the experiment, the non-parametric ANOVA test was used for the T/C values based on the tumour area, since there was no normal distribution of the measured values. All therapy groups were then compared to the vehicle group using Dunns Post test. The resulting p values are shown in the table (ns: not significant=p>0.05). Since there was a normal distribution of the T/C values based on tumour weight, the ANOVA test for parametric values was used for analysis. All therapy groups were then compared to the vehicle group using the Bonferroni Post test.

[1] = Maximum tolerated dose (MTD) determination, oral; format: in vivo, female nude mice (NMRI nu/nu); details: for MTD at 21 days: 21-day treatment with 1 administration per day
Method: To this end, initially the maximum tolerable dose (MTD) was determined using the following protocol:
Over a period of 1, 2 or 3 weeks, a defined dose of the test substance was administered orally to female nude mice (NMRI-nude (nu/nu) mice, Taconic M&B A/S), and the mice were observed daily for mortality and body weight. The MTD was defined as the highest dose which could be administered without any animal dying during the treatment phase and the 7-day additional observation phase, and without any body weight loss of more than 10% compared to the initial weight.
Comparative Example C.1 was administered to female nude mice (NMRI nu/nu): • Dose: see Tab. 3 • Mode of administration: oral • Vehicle: PEG400/ethanol/Solutol HS 15(70/5/25, v/v/v) • (Solutol HS15: polyoxyethylene ester of 12-hydroxystearic acid) • Administration volume: 10 ml/kg • Scheme: see Tab. 3
The treatment phase was followed by an observation phase of 7 days.
Compound A was administered to female nude mice (NMRI nu/nu): • Dose: see Tab. 4 • Mode of administration: oral • Vehicle: PEG400/ethanol/Solutol HS 15(70/5/25, v/v/v) • Administration volume: 10 ml/kg • Scheme: see Tab. 4

ACC2 [2] = target: T1, ACC2 (Homo sapiens (Human), UniProt O00763); experiment: Human ACC2 enzyme assay B2 (ADP-Glo); format: biochemical; details: read-out: ACC 2 (=B2) IC50
Target sequence in this assay (O00763 27-2458 limits assumed): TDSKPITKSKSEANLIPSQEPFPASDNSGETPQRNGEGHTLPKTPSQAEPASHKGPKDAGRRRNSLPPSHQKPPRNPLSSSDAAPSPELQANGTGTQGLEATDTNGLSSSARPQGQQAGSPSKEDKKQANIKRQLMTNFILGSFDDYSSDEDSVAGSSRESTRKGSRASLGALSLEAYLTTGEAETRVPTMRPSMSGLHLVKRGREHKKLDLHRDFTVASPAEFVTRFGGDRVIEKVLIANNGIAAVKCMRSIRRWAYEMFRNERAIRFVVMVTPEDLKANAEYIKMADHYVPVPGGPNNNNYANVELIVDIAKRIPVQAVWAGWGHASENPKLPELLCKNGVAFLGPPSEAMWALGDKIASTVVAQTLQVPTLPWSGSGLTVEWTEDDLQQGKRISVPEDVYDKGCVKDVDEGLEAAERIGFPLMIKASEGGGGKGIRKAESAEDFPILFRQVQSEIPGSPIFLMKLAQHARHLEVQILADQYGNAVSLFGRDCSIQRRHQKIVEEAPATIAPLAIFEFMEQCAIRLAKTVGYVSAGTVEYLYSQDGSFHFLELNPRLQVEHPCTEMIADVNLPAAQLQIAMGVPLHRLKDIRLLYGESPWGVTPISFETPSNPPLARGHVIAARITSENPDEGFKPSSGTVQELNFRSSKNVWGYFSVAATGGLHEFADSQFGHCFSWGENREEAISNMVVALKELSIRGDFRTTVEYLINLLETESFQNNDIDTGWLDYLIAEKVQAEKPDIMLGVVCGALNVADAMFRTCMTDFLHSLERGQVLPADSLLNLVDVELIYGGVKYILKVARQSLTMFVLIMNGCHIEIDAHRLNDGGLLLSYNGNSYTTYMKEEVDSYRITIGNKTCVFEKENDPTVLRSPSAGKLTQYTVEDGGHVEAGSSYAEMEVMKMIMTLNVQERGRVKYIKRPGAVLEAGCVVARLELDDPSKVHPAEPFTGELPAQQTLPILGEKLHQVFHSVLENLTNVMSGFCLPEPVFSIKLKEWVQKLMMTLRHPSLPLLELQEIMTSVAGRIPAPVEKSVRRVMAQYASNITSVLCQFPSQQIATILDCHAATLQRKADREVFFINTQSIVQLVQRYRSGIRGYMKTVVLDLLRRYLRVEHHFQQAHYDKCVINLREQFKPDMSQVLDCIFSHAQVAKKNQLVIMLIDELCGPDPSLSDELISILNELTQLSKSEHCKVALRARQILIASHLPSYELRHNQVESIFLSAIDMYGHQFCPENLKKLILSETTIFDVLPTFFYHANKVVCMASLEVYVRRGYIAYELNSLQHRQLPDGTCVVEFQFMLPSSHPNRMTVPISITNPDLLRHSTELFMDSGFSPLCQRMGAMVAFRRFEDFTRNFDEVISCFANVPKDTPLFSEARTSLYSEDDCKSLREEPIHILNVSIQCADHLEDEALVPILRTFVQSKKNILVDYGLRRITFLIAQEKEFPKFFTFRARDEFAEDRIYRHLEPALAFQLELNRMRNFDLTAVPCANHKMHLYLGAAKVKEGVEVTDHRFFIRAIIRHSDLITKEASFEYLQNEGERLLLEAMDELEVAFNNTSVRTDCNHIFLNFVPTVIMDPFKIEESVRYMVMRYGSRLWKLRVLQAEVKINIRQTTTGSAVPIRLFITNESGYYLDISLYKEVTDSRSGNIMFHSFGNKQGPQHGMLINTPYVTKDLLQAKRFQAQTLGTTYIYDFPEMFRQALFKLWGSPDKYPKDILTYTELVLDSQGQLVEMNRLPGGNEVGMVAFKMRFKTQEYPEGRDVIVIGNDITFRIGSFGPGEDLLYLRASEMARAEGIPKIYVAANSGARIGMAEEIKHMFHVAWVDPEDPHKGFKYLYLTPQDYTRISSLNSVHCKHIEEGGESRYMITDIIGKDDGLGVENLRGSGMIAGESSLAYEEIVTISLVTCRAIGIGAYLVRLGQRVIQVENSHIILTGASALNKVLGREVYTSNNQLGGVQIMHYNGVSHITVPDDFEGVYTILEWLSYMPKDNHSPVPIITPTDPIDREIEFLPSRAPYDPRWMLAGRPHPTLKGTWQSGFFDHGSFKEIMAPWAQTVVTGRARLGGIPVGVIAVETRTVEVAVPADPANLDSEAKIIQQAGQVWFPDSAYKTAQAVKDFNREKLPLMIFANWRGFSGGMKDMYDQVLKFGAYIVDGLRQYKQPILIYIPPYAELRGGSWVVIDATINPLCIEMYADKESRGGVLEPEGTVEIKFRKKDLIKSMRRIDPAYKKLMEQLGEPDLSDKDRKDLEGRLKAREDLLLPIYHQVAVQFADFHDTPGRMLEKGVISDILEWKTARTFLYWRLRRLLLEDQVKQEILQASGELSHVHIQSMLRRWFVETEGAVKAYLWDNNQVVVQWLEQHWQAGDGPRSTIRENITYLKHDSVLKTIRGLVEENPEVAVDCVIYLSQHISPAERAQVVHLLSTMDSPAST
Method: Essentially, the enzyme activity is measured by quantifying the adenosine diphosphate (ADP) formed as a byproduct of the enzyme reactions using the ADP-Glo™ detection system from Promega. In this test, initially the adenosine triphosphate (ATP) not consumed in the enzyme reaction is converted quantitatively with an adenylate cyclase (“ADP-GLO reagent”) into cAMP, the adenylate cyclase is then stopped and (“kinase detection reagent”) the ADP formed is subsequently converted into ATP, which is converted in a luciferase-based reaction into a glow luminescence signal.
Typical concentrations were in the range of 2 ng/μl. […] The amount of light emitted was taken as a measure for the amount of ADP formed and thus for the enzyme activity of the hACC2.

ACC2 [3] = target: T1, ACC2; experiment: Human ACC2 enzyme assay A2 (HTRF ADP immunoassay); format: biochemical; details: read-out: ACC 2 (=A2) IC50
Text: The ACC2 inhibition data were obtained using two different assays (A2 and B2)
Target sequence in this assay (O00763 39-2458 limits assumed): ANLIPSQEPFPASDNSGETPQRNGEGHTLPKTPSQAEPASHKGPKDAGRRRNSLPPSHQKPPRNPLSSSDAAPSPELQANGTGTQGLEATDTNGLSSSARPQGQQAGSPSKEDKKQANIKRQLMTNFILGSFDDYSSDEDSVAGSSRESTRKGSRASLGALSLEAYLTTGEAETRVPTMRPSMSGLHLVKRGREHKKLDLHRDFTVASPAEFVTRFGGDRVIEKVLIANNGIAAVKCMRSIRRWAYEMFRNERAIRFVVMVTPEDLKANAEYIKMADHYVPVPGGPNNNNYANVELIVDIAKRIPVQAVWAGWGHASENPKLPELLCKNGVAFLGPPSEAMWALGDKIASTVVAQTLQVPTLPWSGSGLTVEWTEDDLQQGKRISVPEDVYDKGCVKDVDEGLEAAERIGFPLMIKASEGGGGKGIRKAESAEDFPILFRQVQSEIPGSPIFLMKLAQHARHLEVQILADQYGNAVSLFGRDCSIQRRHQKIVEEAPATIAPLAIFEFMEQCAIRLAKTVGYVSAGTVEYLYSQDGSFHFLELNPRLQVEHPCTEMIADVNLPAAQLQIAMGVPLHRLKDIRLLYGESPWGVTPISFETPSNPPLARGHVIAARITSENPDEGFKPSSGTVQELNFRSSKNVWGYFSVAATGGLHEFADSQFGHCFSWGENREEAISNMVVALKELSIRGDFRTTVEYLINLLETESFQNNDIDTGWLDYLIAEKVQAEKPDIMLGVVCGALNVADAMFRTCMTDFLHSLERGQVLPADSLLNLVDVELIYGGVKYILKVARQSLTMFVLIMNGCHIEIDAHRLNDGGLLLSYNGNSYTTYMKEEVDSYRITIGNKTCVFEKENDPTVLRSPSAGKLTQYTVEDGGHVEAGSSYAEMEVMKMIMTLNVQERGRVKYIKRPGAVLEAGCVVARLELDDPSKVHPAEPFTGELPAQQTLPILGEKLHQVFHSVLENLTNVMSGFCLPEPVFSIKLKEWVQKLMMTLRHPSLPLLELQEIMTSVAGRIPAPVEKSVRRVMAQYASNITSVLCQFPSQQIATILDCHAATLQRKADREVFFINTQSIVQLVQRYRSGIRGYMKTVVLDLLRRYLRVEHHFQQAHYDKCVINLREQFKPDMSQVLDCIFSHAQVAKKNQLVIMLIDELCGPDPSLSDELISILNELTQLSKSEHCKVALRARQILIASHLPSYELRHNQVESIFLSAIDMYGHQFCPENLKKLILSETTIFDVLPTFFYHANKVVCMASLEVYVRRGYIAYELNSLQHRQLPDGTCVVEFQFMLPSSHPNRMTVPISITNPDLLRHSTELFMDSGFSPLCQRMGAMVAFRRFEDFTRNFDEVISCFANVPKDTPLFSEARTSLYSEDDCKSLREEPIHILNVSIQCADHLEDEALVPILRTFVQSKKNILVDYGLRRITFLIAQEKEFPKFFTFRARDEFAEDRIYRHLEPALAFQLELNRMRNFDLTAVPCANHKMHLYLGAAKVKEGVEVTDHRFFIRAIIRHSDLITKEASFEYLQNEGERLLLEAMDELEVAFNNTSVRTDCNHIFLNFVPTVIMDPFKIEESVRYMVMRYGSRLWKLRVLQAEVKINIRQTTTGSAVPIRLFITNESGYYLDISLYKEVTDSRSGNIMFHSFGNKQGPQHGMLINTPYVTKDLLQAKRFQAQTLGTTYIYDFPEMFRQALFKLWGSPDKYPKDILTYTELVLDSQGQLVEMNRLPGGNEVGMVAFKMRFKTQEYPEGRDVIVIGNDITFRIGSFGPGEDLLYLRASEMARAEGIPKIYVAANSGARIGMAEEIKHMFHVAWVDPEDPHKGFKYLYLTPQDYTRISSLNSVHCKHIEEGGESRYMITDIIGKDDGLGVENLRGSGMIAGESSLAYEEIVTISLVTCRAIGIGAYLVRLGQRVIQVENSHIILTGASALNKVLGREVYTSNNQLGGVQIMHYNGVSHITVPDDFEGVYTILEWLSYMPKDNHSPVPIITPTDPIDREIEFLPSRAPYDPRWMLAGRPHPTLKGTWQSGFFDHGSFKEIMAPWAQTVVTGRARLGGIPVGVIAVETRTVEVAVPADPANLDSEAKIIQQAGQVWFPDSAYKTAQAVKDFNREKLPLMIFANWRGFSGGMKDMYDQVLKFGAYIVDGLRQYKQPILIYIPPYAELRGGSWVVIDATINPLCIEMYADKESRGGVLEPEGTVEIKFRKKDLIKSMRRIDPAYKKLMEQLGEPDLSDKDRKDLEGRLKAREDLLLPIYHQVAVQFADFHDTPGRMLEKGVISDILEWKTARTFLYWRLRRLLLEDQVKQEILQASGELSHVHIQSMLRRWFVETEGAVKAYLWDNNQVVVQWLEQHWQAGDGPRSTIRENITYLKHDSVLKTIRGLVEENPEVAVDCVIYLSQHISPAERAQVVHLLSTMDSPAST

BxPC3 = experiment: Cell assay, tumour cell proliferation (CellTiter-Glo, 96 h); format: cell-based; details: Homo sapiens, BXPC-3; 96-hour incubation
Method: (§1) In accordance with the invention, the substances were tested in cell-based assays for the ability of the substances of inhibiting tumour cell proliferation after a 96-hour incubation with the substance. Cell viability was tested using the CellTiter-Glo® luminescent cell viability assay (Promega). The cells were sown at a density of 2000-5000 cells/well (depending on the cell line) in 100 μl growth medium on 96-well microtitre plates. For each cell line examined, cells were sown on a separate plate to determine the luminescence at t=0 hours and t=96 hours. After overnight incubation at 37° C., the luminescence values for the t=0 samples were determined. The dose plates for the t=96 hours points in time were treated with substances diluted with growth medium. The cells were then incubated at 37° C. for 96 hours, and the luminescence values for the t=96 hours sample were then determined/For data analysis, the t=0 values were subtracted from the t=96 hour values for treated and untreated samples. The differences in luminescence in percent between substance-treated samples and control values were used to determine the growth inhibition in percent.
(§2) The substances were tested in the following cell lines which represent the stated indications in an exemplary manner: […]

H460 = experiment: as above; format: cell-based; details: Homo sapiens, NCI-H460; 96-hour incubation
Method: as §1, §2

LNCaP = experiment: as above; format: cell-based; details: Homo sapiens, 96-hour incubation
Method: as §1, §2

SNU16 = experiment: as above; format: cell-based; details: Homo sapiens, SNU-16; 96-hour incubation
Method: as §1, §2

DAN-G = experiment: as above; format: cell-based; details: 96-hour incubation
Method: as §1, §2

BT-20 = experiment: as above; format: cell-based; details: Homo sapiens, 96-hour incubation
Method: as §1, §2

CAL-120 = experiment: as above; format: cell-based; details: Homo sapiens, 96-hour incubation
Method: as §1, §2

[4] = 7.5 mg/kg oral 2 qd, up to day 37 of the experiment

Structure (SMILES): CO[C@H]1CC[C@]2(CC1)NC(=O)C(c1cc(-c3ccc(Cl)cc3)ccc1C)=C2O [Comparative Example C.1, (5s,8s)-3-(4′-chloro-4-methylbiphenyl-3-yl)-4-hydroxy-8-methoxy-1-azaspiro[4.5]dec-3-en-2-one]
animals died (human MCF-7 cells; [4]): 1 of 10
bodyweight loss (human MCF-7 cells; [4]): low bodyweight loss
T/C value based on tumour area (human MCF-7 cells; 7.5 mg/kg oral, 27 days, 2 times per day (2 qd)): 0.86
Deaths (human MCF-7 cells; continued with 10 mg/kg 2 qd up to day 43): 1 of 4
Deaths (human MCF-7 cells; continued with 12.5 mg/kg 2 qd up to day 43): 4 of 5
Deaths ([1]; 10 mg/kg oral, 14 days, 2 times a day): 1 of 3
Deaths ([1]; 15 mg/kg oral, 21 days, once per day (Table 3)): 1 of 5
Deaths ([1]; 20 mg/kg oral, 14 days, 2 times a day): 2 of 3
Deaths ([1]; 20 mg/kg oral, 21 days, once per day (Table 3)): 1 of 5
Deaths ([1]; 25 mg/kg oral, 21 days, once per day (Table 3)): 1 of 5
Deaths ([1]; 30 mg/kg oral, 14 days, 2 times a day): 2 of 3
MTD at 14 days ([1]; female, NMRI nu/nu, mouse, in vivo, po, 14-day treatment with 2 administrations per day): < 10 mg/kg
MTD at 21 days ([1]; female, NMRI nu/nu, mouse, in vivo, po): < 15 mg/kg

IC50 (ACC2 [2]): 2610 nM
IC50 (ACC2 [3]): 1410 nM
Structure (SMILES): COC1CCC2(C=C(c3cc(-c4ccc(Cl)c(Cl)c4)ccc3C)C(=O)N2)CC1 (stereo not shown) [Comparative Example C.2]

Structure (SMILES): CO[C@H]1CC[C@]2(CC1)NC(=O)C(c1cc(-c3ccc(Cl)c(F)c3)ccc1C)=C2O [Compound A, (5s,8s)-3-(4′-chloro-3′-fluoro-4-methylbiphenyl-3-yl)-4-hydroxy-8-methoxy-1-azaspiro[4.5]dec-3-en-2-one]
T/C (based on tumour area) (human MCF-7 cells; 20 mg/kg oral): 0.56 (ns)
T/C (based on tumour weight) (human MCF-7 cells; 20 mg/kg oral): 0.42 (p = 0.003)
T/C (based on tumour area) (human MCF-7 cells; 25 mg/kg oral): 0.51 (p < 0.05)
T/C (based on tumour weight) (human MCF-7 cells; 25 mg/kg oral): 0.37 (p < 0.001)
T/C (based on tumour area) (human MCF-7 cells; 30 mg/kg oral): 0.49 (p < 0.05)
T/C (based on tumour weight) (human MCF-7 cells; 30 mg/kg oral): 0.35 (p < 0.001)
T/C (based on tumour area) (human MCF-7 cells; 35 mg/kg oral): 0.44 (p < 0.05)
T/C (based on tumour weight) (human MCF-7 cells; 35 mg/kg oral): 0.31 (p < 0.001)
antitumoral efficacy (in words) (human MCF-7 cells; MCF-7 xenograft, summary statement): biologically meaningful and significant antitumoral effects
IC50 (BxPC3): 165 nM
IC50 (H460): 201 nM
IC50 (LNCaP): 334 nM
IC50 (SNU16): 164 nM
IC50 (DAN-G): 184 nM
IC50 (BT-20): 187 nM
IC50 (CAL-120): 266 nM
Deaths ([1]; 20 mg/kg oral, 21 days, once per day (Table 4)): 0 of 5
Deaths ([1]; 30 mg/kg oral, 21 days, once per day (Table 4)): 0 of 5
Deaths ([1]; 40 mg/kg oral, 21 days, once per day (Table 4)): 1 of 5
Deaths ([1]; 50 mg/kg oral, 21 days, once per day (Table 4)): 5 of 5
Deaths ([1]; 60 mg/kg oral, 21 days, once per day (Table 4)): 5 of 5
MTD at 21 days ([1]; female, NMRI nu/nu (nude), mouse, in vivo, po): < 40 mg/kg
